The source of these data is paper PMC7400135, “3-(5-Nitrofuran-2-yl)prop-2-en-1-one Derivatives, with Potent Antituberculosis Activity, Inhibit A Novel Therapeutic Target, Arylamine N-acetyltransferase, in Mycobacteria” (Antibiotics, 2020).

Data set [1] concerns M. bovis BCG (ATCC 35734). In words: microbe, parasite or virus in culture. It counts as cell-based. The note with it: Mycobacterium tuberculosis variant bovis BCG, 336 h, read-out: MIC Mycobacterium bovis BCG.
In the next data set the test system is E. coli (NCTC 10538). In words: HT-SPOTi growth inhibition (MIC), E. coli. It counts as cell-based, Escherichia coli. The note with it: 37 °C 16 h; for MIC: Escherichia coli, NCTC10538, LB agar; for MIC Escherichia coli: LB agar.
In a further data set the test system is S. aureus (ATCC 25923). In words: HT-SPOTi growth inhibition (MIC), S. aureus. It counts as cell-based, Staphylococcus aureus. Conditions: 37 °C 16 h; for MIC: Staphylococcus aureus, ATCC25923, LB agar; for MIC Staphylococcus aureus: LB agar.
In data set [2] the test system is M. tuberculosis H37Rv (ATCC 25618). In words: HT-SPOTi growth inhibition (MIC), M. tuberculosis H37Rv. Conditions: Mycobacterium tuberculosis; HT-SPOTi agar assay; read-out: MIC Mtb H37Rv. Type of data set: cell-based.
Data set [3] concerns M. aurum (NCTC 10437). In words: HT-SPOTi growth inhibition (MIC), M. aurum. It counts as cell-based. The note with it: Mycolicibacterium aurum, NCTC10437, 120 h; HT-SPOTi agar assay, 35 °C 5 days; read-out: MIC Mycobacterium aurum.
Data set [4] addresses recombinant Mycobacterium marinum N-acetyltransferase (MMNAT) (Mycobacterium marinum, UniProt B2HIZ6). In words: Inhibition of recombinant MMNAT (DTNB assay). Type of data set: biochemical.
Data set [5] deals with M. bovis BCG infected in THP-1 macrophages. In words: microbe, parasite or virus in culture. Type of data set: cell-based, Mycobacterium bovis BCG. Conditions: for ex vivo MIC as multiple of MIC: M. bovis BCG in THP-1 macrophages; for MIC: Mycobacterium tuberculosis variant bovis BCG, BCG, 48 h, read-out: ex vivo MIC.
Data set [6] deals with human monocyte THP-1 cell line. The note with it: resazurin assay, 48 h incubation.
Data set [7] relates to murine macrophage RAW 264.7 cell line. Conditions: resazurin assay, 48 h incubation. For orientation: Alamar Blue is a resazurin reagent that responds to reducing activity.
The test system of data set [8] is M. bovis BCG (ATCC 35734). The note with it: ref Gupta and Bhakta, 2012; cited from earlier work.
The subject of data set [9] is M. aurum (NCTC 10437). More on the design: method as in Gupta and Bhakta, 2012. The note with it: ref Gupta and Bhakta, 2012; cited from earlier work.
Setting [10] is: hydralazine 450 µM, acetyl CoA 400 µM, extrapolated from linear regression, read-out: IC50 MMNAT.
The mark [11] stands for this setting: value in brackets, same IC50 in mg/L, read-out: IC50 MMNAT.

The structures appear in SMILES notation. Converted amounts (≈) assume the structure as drawn. Where two headings read alike, the source gives them in different places. Marks after values point to notes of the source that are not given here.

Sequence of recombinant Mycobacterium marinum N-acetyltransferase (MMNAT) (B2HIZ6 entry or part of it): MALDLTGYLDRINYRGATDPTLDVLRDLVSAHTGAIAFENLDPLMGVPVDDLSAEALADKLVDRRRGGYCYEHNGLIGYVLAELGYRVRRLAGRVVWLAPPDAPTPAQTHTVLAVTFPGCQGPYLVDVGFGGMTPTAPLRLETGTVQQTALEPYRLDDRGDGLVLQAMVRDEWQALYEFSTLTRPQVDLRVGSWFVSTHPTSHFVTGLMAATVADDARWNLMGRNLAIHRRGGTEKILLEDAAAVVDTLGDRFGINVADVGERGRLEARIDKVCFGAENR

With `CC1(C)S[C@@H]2[C@H](NC(=O)[C@H](N)c3ccccc3)C(=O)N2[C@H]1C(=O)O` [Ampicillin, reference compound], the MIC was greater than 500 µg/mL in data set [1], 2 µg/mL (≈ 5.72 µM) against E. coli (NCTC 10538) and 0.125 µg/mL (≈ 0.358 µM) against S. aureus (ATCC 25923).

By IC50 is commonly meant the concentration that inhibits the measured activity by half. Turning to `O=C(/C=C/c1ccc([N+](=O)[O-])o1)c1ccc(N2CCOCC2)cc1` [Compound 1], the MIC in data set [2] was 0.244 µg/mL (≈ 0.743 µM); in data set [1], 0.06 µg/mL (≈ 0.183 µM); in the data set on M. aurum (NCTC 10437) [3] it was greater than 500 µg/mL; with E. coli (NCTC 10538), greater than 500 µg/mL; with S. aureus (ATCC 25923), greater than 500 µg/mL; in data set [5], 0.24 µg/mL (≈ 0.731 µM). In addition, the “MIC Escherichia coli” value with E. coli (NCTC 10538) was “inactive”. In addition, the “MIC Staphylococcus aureus” value with S. aureus (ATCC 25923) is “inactive”. Moreover, the IC50 in data set [4] (setting [10]) and in data set [4] (setting [11]) was 0.207 µM each time. In data set [5], the “ex vivo MIC as multiple of MIC” value was 4 × MIC. Moreover, the “GIC THP-1 Cell Line” value in [6] is given as 62.5 mg/L. Further, the “GIC RAW 264.7 Cell Line” value in data set [7] is 125 mg/L.

For the molecule `O=C(/C=C/c1ccc([N+](=O)[O-])o1)c1ccc(N2CCCCC2)cc1` [Compound 2], the MIC in data set [2] is 0.031 µg/mL (≈ 0.095 µM); in data set [1], 0.0075 µg/mL (≈ 0.023 µM); in the data set on M. aurum (NCTC 10437) [3] it was greater than 500 µg/mL; against E. coli (NCTC 10538) it was greater than 500 µg/mL; against S. aureus (ATCC 25923), greater than 500 µg/mL. Further, the “MIC Escherichia coli” value against E. coli (NCTC 10538) is “inactive”. For the same molecule, the “MIC Staphylococcus aureus” value against S. aureus (ATCC 25923) was “inactive”. Further, the values for the IC50 in data set [4] (setting [10]) and in [4] (setting [11]) were 0.269 µM and 0.27 µM, respectively. Moreover, the “GIC THP-1 Cell Line” value in [6] was 62.5 mg/L. For the same molecule, the “GIC RAW 264.7 Cell Line” value in [7] is given as 125 mg/L.

With `CCN(CC)c1ccc(C(=O)/C=C/c2ccc([N+](=O)[O-])o2)cc1` [Compound 3], the MIC in data set [2] was 0.488 µg/mL (≈ 1.55 µM); in data set [1], 0.03 µg/mL (≈ 0.0954 µM); in the data set on M. aurum (NCTC 10437) [3] it was greater than 500 µg/mL; against E. coli (NCTC 10538), 250 µg/mL (≈ 795 µM); in the data set on S. aureus (ATCC 25923), 62.5 µg/mL (≈ 199 µM). Also, the IC50 in [4] (setting [10]) and in [4] (setting [11]) was 0.134 µM in each case. Moreover, in data set [6], the “GIC THP-1 Cell Line” value is listed as 15.6 mg/L. Further, the “GIC RAW 264.7 Cell Line” value in [7] is on record as 31.25 mg/L.

As for `CC[C@@H](CO)NCCN[C@@H](CC)CO` [Ethambutol], the MIC in [2] is 2 µg/mL (≈ 9.79 µM). Further, the IC50 in data set [4] (setting [10]) was greater than 1 µM. For the same molecule, in data set [8], the “MIC Mycobacterium bovis BCG” value is listed as 2.00 ^# mg/L. The “MIC Mycobacterium aurum” value with M. aurum (NCTC 10437) [9] is 0.10 ^# mg/L.

Consider `NNC(=O)c1ccncc1` [Isoniazid, reference compound], for which the MIC in data set [2] was 0.8 µg/mL (≈ 5.83 µM); in data set [1], 0.625 µg/mL (≈ 4.56 µM); with M. aurum (NCTC 10437) [3], 1.25 µg/mL (≈ 9.11 µM); in data set [5], 1.25 µg/mL (≈ 9.11 µM). Further, the IC50 in data set [4] (setting [10]) is greater than 1 µM. The “ex vivo MIC as multiple of MIC” value in [5] is recorded as 2 × MIC. Moreover, the “GIC THP-1 Cell Line” value in data set [6] is “NA^a (not active until 500 mg/L concentration)”. For the same molecule, in data set [7], the “GIC RAW 264.7 Cell Line” value is listed as “NA^a (not active until 500 mg/L concentration)”.

For `CN(Cc1cnc2nc(N)nc(N)c2n1)c1ccc(C(=O)N[C@@H](CCC(=O)O)C(=O)O)cc1` [Methotrexate, reference compound], the MIC in data set [2] is greater than 500 µg/mL; in [1], 500 µg/mL (≈ 1100 µM). The “GIC THP-1 Cell Line” value in [6] came to 0.975 mg/L. Also, the “GIC RAW 264.7 Cell Line” value in data set [7] is 0.122 mg/L.

Consider `O=[N+]([O-])c1cn2c(n1)OC[C@@H](OCc1ccc(OC(F)(F)F)cc1)C2` [Pretomanid], for which the MIC in data set [2] stood at 0.061 µg/mL (≈ 0.17 µM). In addition, the IC50 in data set [4] (setting [10]) is greater than 1 µM.

For `CO[C@H]1/C=C/O[C@@]2(C)Oc3c(C)c(O)c4c(O)c(c(/C=N/N5CCN(C)CC5)c(O)c4c3C2=O)NC(=O)/C(C)=C\C=C\[C@H](C)[C@H](O)[C@@H](C)[C@@H](O)[C@@H](C)[C@H](OC(C)=O)[C@@H]1C` [Rifampicin], the MIC in data set [2] worked out at 0.125 µg/mL (≈ 0.152 µM). Further, the IC50 in [4] is greater than 1 µM. Moreover, the “MIC Mycobacterium bovis BCG” value in data set [8] is 0.50 ^# mg/L. In addition, the “MIC Mycobacterium aurum” value in the data set with M. aurum (NCTC 10437) [9] is 0.40 ^# mg/L.
